{"source": "ChEMBL document CHEMBL6078657", "about": "“Thiazolidinedione-based structure modification of ergosterol peroxide provides thiazolidinedione-conjugated derivatives as potent agents against breast cancer cells through a PI3K/AKT/mTOR pathway” (Bioorg Med Chem, 2025)", "key": {"[1]": {"experiment": "Toxicity in healthy BALB/c mouse assessed as pathological changes in kidney at 40 mg/kg, ip daily for 14 consecutive days by HE staining based assay", "format": "organism-based", "details": "in vivo"}, "MCF7 [2]": {"test_system": "MCF7", "experiment": "Induction of apoptosis in human MCF7 cells assessed as necrotic cells at 1 uM measured after 48 hrs incubation by Annexin V-FITC/PI double staining assay (reference value: 0.77%)", "format": "functional"}, "MCF7 [3]": {"test_system": "MCF7", "experiment": "Induction of apoptosis in human MCF7 cells assessed as late apoptotic cells at 6 uM measured after 48 hrs incubation by Annexin V-FITC/PI double staining assay (reference value: 0.68%)", "format": "functional"}, "MCF7 [4]": {"test_system": "MCF7", "experiment": "Induction of apoptosis in human MCF7 cells assessed as necrotic cells at 6 uM measured after 48 hrs incubation by Annexin V-FITC/PI double staining assay (reference value: 0.77%)", "format": "functional"}, "[5]": {"experiment": "Toxicity in healthy BALB/c mouse assessed as pathological changes in kidneys at 20 mg/kg, ip daily for 14 consecutive days by HE staining based assay", "format": "organism-based", "details": "in vivo, 336 h, time 14 day"}, "[6]": {"experiment": "Toxicity in healthy BALB/c mouse assessed as pathological changes in liver at 20 mg/kg, ip daily for 14 consecutive days by HE staining based assay", "format": "organism-based", "details": "in vivo, 336 h, time 14 day"}, "MCF7 [7]": {"test_system": "MCF7", "experiment": "Induction of apoptosis in human MCF7 cells assessed as decrease in mitochondrial membrane potential by measuring increase in JC-1 monomer (green fluorescence) at 3 uM incubated for 48 hrs by JC-1 staining based flow cytometry analysis (reference value: 2.96%)", "format": "functional", "parameters": "scale not given: the % may be the effect or the level left"}, "MCF7 [8]": {"test_system": "MCF7", "experiment": "Induction of cell cycle arrest in human MCF7 cells assessed as accumulation of cells at S phase at 6 uM measured after 48 hrs by PI staining based flow cytometry analysis (reference value: 24.67%)", "format": "functional"}, "[9]": {"experiment": "Toxicity in healthy BALB/c mouse assessed as pathological changes in heart at 20 mg/kg, ip daily for 14 consecutive days by HE staining based assay", "format": "organism-based", "details": "in vivo, 336 h, time 14 day"}, "MCF7 [10]": {"test_system": "MCF7", "experiment": "Induction of cell cycle arrest in human MCF7 cells assessed as accumulation of cells at S phase at 1 uM measured after 48 hrs by PI staining based flow cytometry analysis (reference value: 24.67%)", "format": "functional"}, "MCF7 [11]": {"test_system": "MCF7", "experiment": "Induction of apoptosis in human MCF7 cells assessed as early apoptotic cells at 1 uM measured after 48 hrs incubation by Annexin V-FITC/PI double staining assay (reference value: 5.73%)", "format": "functional"}, "MCF7 [12]": {"test_system": "MCF7", "experiment": "Inhibition of phosphorylation of Akt in human MCF7 cells measured after 48 hrs by Western blot analysis", "format": "cell-based", "details": "dose 1-6 µM"}, "[13]": {"experiment": "Toxicity in healthy BALB/c mouse assessed as pathological changes in spleen at 40 mg/kg, ip daily for 14 consecutive days by HE staining based assay", "format": "organism-based", "details": "in vivo, 336 h, time 14 day"}, "MCF7 [14]": {"test_system": "MCF7", "experiment": "Induction of apoptosis in human MCF7 cells assessed as necrotic cells at 3 uM measured after 48 hrs incubation by Annexin V-FITC/PI double staining assay (reference value: 0.77%)", "format": "functional"}, "MCF7 [15]": {"test_system": "MCF7", "experiment": "Induction of apoptosis in human MCF7 cells assessed as viable cells at 1 uM measured after 48 hrs incubation by Annexin V-FITC/PI double staining assay (reference value: 92.8%)", "format": "functional", "details": "read-out: Activity"}, "MCF7 [16]": {"test_system": "MCF7", "experiment": "Induction of apoptosis in human MCF7 cells assessed as late apoptotic cells at 1 uM measured after 48 hrs incubation by Annexin V-FITC/PI double staining assay (reference value: 0.68%)", "format": "functional"}, "[17]": {"experiment": "Antiproliferative activity against human MCF-10A cells assessed as cell viability measured after 48 hrs incubation by MTT assay", "format": "toxicity, cell-based"}, "4T1": {"test_system": "4T1", "experiment": "In vivo antitumor activity against mouse 4T1 cells transfected in BALB/c mouse assessed as tumor growth inhibition at 30 mg/kg, ip daily for 14 consecutive days relative to control", "format": "functional", "details": "4T1, 336 h, time 14 day, read-out: TGI"}, "MCF7 [18]": {"test_system": "MCF7", "experiment": "Induction of apoptosis in human MCF7 cells assessed as early apoptotic cells at 6 uM measured after 48 hrs incubation by Annexin V-FITC/PI double staining assay (reference value: 5.73%)", "format": "functional"}, "MCF7 [19]": {"test_system": "MCF7", "experiment": "Induction of cell cycle arrest in human MCF7 cells assessed as accumulation of cells at G2/M phase at 1 uM measured after 48 hrs by PI staining based flow cytometry analysis (reference value: 16.91%)", "format": "functional"}, "[20]": {"experiment": "Selectivity index, ratio of IC50 for human MCF-10A cells to IC50 for human MCF7 cells", "format": "toxicity", "details": "MCF-10A cells and MCF7 cells, read-out: Selectivity Index"}, "[21]": {"experiment": "Toxicity in healthy BALB/c mouse assessed as pathological changes in lungs at 20 mg/kg, ip daily for 14 consecutive days by HE staining based assay", "format": "organism-based", "details": "in vivo, 336 h, time 14 day"}, "[22]": {"experiment": "Toxicity in healthy BALB/c mouse assessed as pathological changes in spleen at 20 mg/kg, ip daily for 14 consecutive days by HE staining based assay", "format": "organism-based", "details": "in vivo, 336 h, time 14 day"}, "A549": {"test_system": "A549", "experiment": "Antiproliferative activity against human A549 cells assessed as cell viability measured after 48 hrs incubation by MTT assay", "format": "functional, cell-based", "details": "A549, 48 h"}, "MCF7 [23]": {"test_system": "MCF7", "experiment": "Induction of cell cycle arrest in human MCF7 cells assessed as accumulation of cells at G0/G1 phase at 6 uM measured after 48 hrs by PI staining based flow cytometry analysis (reference value: 58.42%)", "format": "functional"}, "MCF7 [24]": {"test_system": "MCF7", "experiment": "Induction of apoptosis in human MCF7 cells assessed as early apoptotic cells at 3 uM measured after 48 hrs incubation by Annexin V-FITC/PI double staining assay (reference value: 5.73%)", "format": "functional"}, "MCF7 [25]": {"test_system": "MCF7", "experiment": "Induction of apoptosis in human MCF7 cells assessed as decrease in mitochondrial membrane potential by measuring increase in JC-1 monomer (green fluorescence) incubated for 48 hrs by JC-1 staining based flow cytometry analysis", "format": "functional, cell-based", "details": "dose 1-6 µM"}, "MCF7 [26]": {"test_system": "MCF7", "experiment": "Antiproliferative activity against human MCF7 cells assessed as cell viability measured after 48 hrs incubation by MTT assay", "format": "functional, cell-based", "details": "MCF7, 48 h"}, "MCF7 [27]": {"test_system": "MCF7", "experiment": "Growth inhibition of human MCF7 cells assessed as ruptured membrane and shrunken nucleus at 1 to 6 uM incubated up to 48 hrs by acridine orange/ethidium bromide (AO/EB) staining based assay", "format": "functional, cell-based", "details": "dose 1-6 µM"}, "MCF7 [28]": {"test_system": "MCF7", "experiment": "Induction of apoptosis in human MCF7 cells assessed as decrease in mitochondrial membrane potential by measuring increase in JC-1 monomer (green fluorescence) at 1 uM incubated for 48 hrs by JC-1 staining based flow cytometry analysis (reference value: 2.96%)", "format": "functional", "parameters": "scale not given: the % may be the effect or the level left"}, "MCF7 [29]": {"test_system": "MCF7", "experiment": "Induction of cell cycle arrest in human MCF7 cells assessed as accumulation of cells at G2/M phase at 3 uM measured after 48 hrs by PI staining based flow cytometry analysis (reference value: 16.91%)", "format": "functional"}, "MCF7 [30]": {"test_system": "MCF7", "experiment": "Induction of cell cycle arrest in human MCF7 cells assessed as accumulation of cells at G2/M phase at 6 uM measured after 48 hrs by PI staining based flow cytometry analysis (reference value: 16.91%)", "format": "functional"}, "MCF7 [31]": {"test_system": "MCF7", "experiment": "Induction of cell cycle arrest in human MCF7 cells assessed as accumulation of cells at S phase at 3 uM measured after 48 hrs by PI staining based flow cytometry analysis (reference value: 24.67%)", "format": "functional"}, "[32]": {"experiment": "Toxicity in healthy BALB/c mouse assessed as pathological changes in heart at 40 mg/kg, ip daily for 14 consecutive days by HE staining based assay", "format": "organism-based", "details": "in vivo, 336 h, time 14 day"}, "MCF7 [33]": {"test_system": "MCF7", "experiment": "Induction of apoptosis in human MCF7 cells assessed as late apoptotic cells at 3 uM measured after 48 hrs incubation by Annexin V-FITC/PI double staining assay (reference value: 0.68%)", "format": "functional"}}, "note": "Active and inactive are the calls of the source. No cut-off for these calls is given here."}
{"compound": "CC(C)[C@@H](C)/C=C/[C@@H](C)[C@H]1CC[C@@H]2[C@]1(C)CC[C@H]1[C@]23C=C[C@]2(C[C@@H](OC(=O)NCCNC(=O)CN4C(=O)S/C(=C\\c5cccc6ccccc56)C4=O)CC[C@]12C)OO3", "values": [{"measurement": "Activity", "setting": "[1]", "value": "Non-toxic"}, {"measurement": "Activity", "setting": "MCF7 [2]", "value": 0.99, "unit": "%"}, {"measurement": "Activity", "setting": "MCF7 [3]", "value": 1.75, "unit": "%"}, {"measurement": "Activity", "setting": "MCF7 [4]", "value": 0.72, "unit": "%"}, {"measurement": "Activity", "setting": "[5]", "value": "Non-toxic"}, {"measurement": "Activity", "setting": "[6]", "value": "Non-toxic"}, {"measurement": "Activity", "setting": "MCF7 [7]", "value": 26.2, "unit": "%"}, {"measurement": "Activity", "setting": "MCF7 [8]", "value": 2.87, "unit": "%"}, {"measurement": "Activity", "setting": "[9]", "value": "Non-toxic"}, {"measurement": "Activity", "setting": "MCF7 [10]", "value": 14.93, "unit": "%"}, {"measurement": "Activity", "setting": "MCF7 [11]", "value": 13.7, "unit": "%"}, {"measurement": "inhibition", "setting": "MCF7 [12]", "value": "Dose-dependent-effect"}, {"measurement": "Activity", "setting": "[13]", "value": "Non-toxic"}, {"measurement": "Activity", "setting": "MCF7 [14]", "value": 0.77, "unit": "%"}, {"measurement": "viability at 1 µM", "setting": "MCF7 [15]", "value": 84.4, "unit": "%"}, {"measurement": "Activity", "setting": "MCF7 [16]", "value": 0.9, "unit": "%"}, {"measurement": "IC50 at 48 h", "setting": "[17]", "value": 32.3, "unit": "µM"}, {"measurement": "inhibition in vivo at 30 mg/kg", "setting": "4T1", "value": 86.2, "unit": "%"}, {"measurement": "Activity", "setting": "MCF7 [18]", "value": 44.5, "unit": "%"}, {"measurement": "Activity", "setting": "MCF7 [19]", "value": 18.98, "unit": "%"}, {"measurement": "selectivity ratio", "setting": "[20]", "value": 10.6}, {"measurement": "Activity", "setting": "[21]", "value": "Non-toxic"}, {"measurement": "Activity", "setting": "[22]", "value": "Non-toxic"}, {"measurement": "IC50", "setting": "A549", "value": 4.76, "unit": "µM"}, {"measurement": "Activity", "setting": "MCF7 [23]", "value": 89.86, "unit": "%"}, {"measurement": "Activity", "setting": "MCF7 [24]", "value": 22.8, "unit": "%"}, {"measurement": "Activity", "setting": "MCF7 [25]", "value": "Dose-dependent-effect"}, {"measurement": "IC50", "setting": "MCF7 [26]", "value": 3.06, "unit": "µM"}, {"measurement": "growth inhibition (GI)", "setting": "MCF7 [27]", "value": "Active"}, {"measurement": "Activity", "setting": "MCF7 [28]", "value": 12.9, "unit": "%"}, {"measurement": "Activity", "setting": "MCF7 [29]", "value": 10.83, "unit": "%"}, {"measurement": "Activity", "setting": "MCF7 [30]", "value": 7.27, "unit": "%"}, {"measurement": "Activity", "setting": "MCF7 [31]", "value": 8.41, "unit": "%"}, {"measurement": "Activity", "setting": "[32]", "value": "Non-toxic"}, {"measurement": "Activity", "setting": "MCF7 [33]", "value": 0.77, "unit": "%"}]}
